Test results reported in ChEMBL document CHEMBL1149626, “Aza analogues of equol: novel ligands for estrogen receptor beta” (Bioorg Med Chem, 2007).
Active and inactive are the calls of the source. The rule behind the calls is not given here.

Assays:
[1] = test system: Mus musculus; assay: Effect on bone mineral density in ovariectomized kunming mouse at 4 umol/kg, sc qd for 4 weeks; assay type: functional
[2] = molecular target: T1, Estrogen receptor beta (Homo sapiens, UniProt Q92731)
Description: Displacement of [3H]17beta-estradiol from recombinant human ERbeta

[3] = test system: Mus musculus; assay: Effect on uterine wet weight in ovariectomized kunming mouse at 4 umol/kg, sc qd for 4 weeks; assay type: functional
[4] = molecular target: T2, Estrogen receptor (Homo sapiens) (UniProt P03372)
T2 sequence (whole entry): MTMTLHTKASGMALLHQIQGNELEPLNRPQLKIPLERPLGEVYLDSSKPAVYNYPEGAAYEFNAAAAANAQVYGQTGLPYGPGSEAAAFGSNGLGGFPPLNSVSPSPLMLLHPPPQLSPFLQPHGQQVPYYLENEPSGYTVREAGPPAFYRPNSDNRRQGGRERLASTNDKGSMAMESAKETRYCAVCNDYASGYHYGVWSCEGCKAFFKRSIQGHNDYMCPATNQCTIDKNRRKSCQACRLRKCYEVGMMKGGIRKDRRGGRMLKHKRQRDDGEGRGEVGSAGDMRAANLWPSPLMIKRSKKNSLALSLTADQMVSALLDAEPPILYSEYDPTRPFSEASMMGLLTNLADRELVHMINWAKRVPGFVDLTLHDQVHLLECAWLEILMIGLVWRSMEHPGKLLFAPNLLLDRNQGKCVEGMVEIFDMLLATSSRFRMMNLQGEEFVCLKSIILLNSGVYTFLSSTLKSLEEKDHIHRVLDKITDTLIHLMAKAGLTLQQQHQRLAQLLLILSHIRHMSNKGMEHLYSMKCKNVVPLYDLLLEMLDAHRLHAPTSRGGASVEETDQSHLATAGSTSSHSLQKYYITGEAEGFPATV
Description: (§1) Displacement of [3H]17beta-estradiol from recombinant human ERalpha

[5] = molecular target: T3, Estrogen receptor (Homo sapiens, UniProt P03372); assay: Agonist activity at human ERalpha expressed in yeast AH109 by yeast two hybrid assay; assay type: functional
T3 sequence (P03372 whole entry): T2 sequence (whole entry)

[6] = molecular target: T1, Estrogen receptor beta; assay: Agonist activity at human ERbeta expressed in yeast AH109 by yeast two hybrid assay; assay type: functional
[7] = molecular target: T3, Estrogen receptor
Description: as §1

[8] = species: Homo sapiens; assay: Selectivity for human ERbeta over human ERalpha
[9] = molecular target: T3, Estrogen receptor; assay: Antagonist activity at ERalpha expressed in yeast AH109 assessed as inhibition of 17-beta-estradiol induced alpha-galactosidase activity; assay type: functional
[10] = species: Homo sapiens; assay: Selectivity ratio of EC50 for human ERalpha to EC50 for human ERbeta

T1 sequence (Q92731 whole entry): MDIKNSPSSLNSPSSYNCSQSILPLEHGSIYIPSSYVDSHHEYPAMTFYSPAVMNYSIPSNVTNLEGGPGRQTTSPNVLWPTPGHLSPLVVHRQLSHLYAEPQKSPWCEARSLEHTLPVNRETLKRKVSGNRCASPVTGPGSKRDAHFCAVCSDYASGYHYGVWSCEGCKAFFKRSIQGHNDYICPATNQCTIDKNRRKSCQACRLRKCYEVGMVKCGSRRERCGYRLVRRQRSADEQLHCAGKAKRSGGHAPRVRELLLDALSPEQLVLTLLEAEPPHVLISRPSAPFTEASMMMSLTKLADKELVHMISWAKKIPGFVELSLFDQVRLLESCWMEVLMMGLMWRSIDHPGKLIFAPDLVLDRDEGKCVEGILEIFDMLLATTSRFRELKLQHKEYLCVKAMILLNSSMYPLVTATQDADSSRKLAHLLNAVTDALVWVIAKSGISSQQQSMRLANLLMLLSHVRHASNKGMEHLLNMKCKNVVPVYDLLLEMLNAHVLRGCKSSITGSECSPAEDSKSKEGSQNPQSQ

Compound `Oc1ccc(C2Cc3ccc(O)cc3NC2=S)cc1` (stereo not drawn) has an Activity [1] of 483 mg/cm3, an IC50 [2] of 4900 nM and an Activity [3] of 38.7 mg. For the same compound, the Activity [4] was “inactive”.
`O=C(c1ccc(OCCN2CCCCC2)cc1)c1c(-c2ccc(O)cc2)sc2cc(O)ccc12` [RALOXIFENE] showed an Activity [1] of 608 mg/cm3 and an Activity [3] of 69.5 mg.
Compound `O=CN1CC(c2ccc(O)cc2)Cc2ccc(O)cc21` (stereo not drawn) has an Activity [1] of 463 mg/cm3 and an Activity [3] of 36.4 mg.
In the case of `O=C(C1CC1)N1CC(c2ccc(O)cc2)Cc2ccc(O)cc21` (stereo not drawn), the IC50 [2] is reported as 2950 nM and the Activity [4] is reported as “inactive”.
In the case of `Oc1ccc(C2CNc3cc(O)ccc3C2)cc1` (stereo not drawn), the EC50 [5] is reported as over 100000 nM and the EC50 [6] is reported as 9700 nM.
With `CS(=O)(=O)N1CC(c2ccc(O)cc2)Cc2ccc(O)cc21` (stereo not drawn) the IC50 [7] was 32100 nM, the Activity [1] was 475 mg/cm3 and the IC50 [2] was 520 nM. It also gave an Activity [3] of 32.5 mg and a Ratio IC50 [8] of 61.5.
With `CC(=O)N1CC(c2ccc(O)cc2)Cc2ccc(O)cc21` (stereo not drawn) the Activity [1] was 451 mg/cm3 and the Activity [3] was 29.1 mg.
For `Oc1ccc(-c2cnc3cc(O)ccc3c2)cc1`, the Activity [1] was 430 mg/cm3, the Activity [3] was 33.1 mg and the EC50 [5] was over 100000 nM. It also gave an EC50 [6] of 37500 nM.
Work on `CCCN1CC(c2ccc(O)cc2)Cc2ccc(O)cc21` (stereo not drawn) yielded an IC50 [7] of 2470 nM, an Activity [1] of 439 mg/cm3 and an IC50 [2] of 140 nM. It also gave an IC50 [9] of 2650 nM, an Activity [3] of 28.3 mg and an EC50 [6] of 4750 nM. It also gave a Ratio IC50 [8] of 17.9.
`CN1CC(c2ccc(O)cc2)Cc2ccc(O)cc21` (stereo not drawn) showed an IC50 [7] of 2950 nM, a Ratio EC50 [10] of 50 and an Activity [1] of 455 mg/cm3. For the same compound, the IC50 [2] was 220 nM, the Activity [3] was 31.8 mg and the EC50 [5] was 15200 nM. It also gave an EC50 [6] of 300 nM and a Ratio IC50 [8] of 13.3.
`Oc1ccc(C2Cc3ccc(O)cc3N(CC3CC3)C2)cc1` (stereo not drawn) showed an IC50 [7] of 1630 nM, an Activity [1] of 461 mg/cm3 and an IC50 [2] of 230 nM. For the same compound, the IC50 [9] was 5570 nM, the Activity [3] was 30.8 mg and the EC50 [6] was 6890 nM. It also gave a Ratio IC50 [8] of 7.1.
`CCN1CC(c2ccc(O)cc2)Cc2ccc(O)cc21` (stereo not drawn) was tested, and the IC50 [7] was 1410 nM, the Ratio EC50 [10] was 41 and the Activity [1] was 454 mg/cm3. The IC50 [2] was 83 nM, the Activity [3] was 31.7 mg and the EC50 [5] was 24300 nM. The EC50 [6] was 580 nM and the Ratio IC50 [8] was 17.
